Test results from PubChem BioAssay AID2060483 (Molecular Pharmacology Branch, DTP, NCI, 2025).
pIC50: −log10 of the molar value. Where “and” joins values, the source holds several entries; their conditions need not be identical. Identical values can stand only once. Blank lines part the entries; values can stand above or below the molecule they belong to.

Test system: K24384-001-R-PDC complex spheroids, viability
Assay: Anticancer human tumor K24384-001-R-PDC patient-derived pancreatic adenocarcinoma cell line growth inhibition [GQUAD]
Settings: for viability, T/C: stronger effect = lower value
Text: DNA G-quadruplex Stabilizer Agents in Combinations in Complex Spheroids
A high-throughput screen of multi-cell type tumor spheroids was designed to identify active combinations of DNA G-quadruplex stabilizer agents and targeted small molecules. Complex spheroids include a stromal component modeled by human endothelial cells (HUVEC) and fibroblasts modeled by human mesenchymal stem cells (MSCs). The concentration ranges selected for each drug and investigational agent were based upon clinically achievable concentrations if the clinical Cmax of the agent was known.
Compounds. The drugs and investigational agents: pidnarulex (CX-5461; NSC782164), APTO-253 (NSC789042), BRACO-19 (NSC847499), peposertib (NSC802822), ceralasertib (NSC780249), elimusertib (NSC800525), camonsertib (NSC841442), AZD-1390 (NSC803789), olaparib (NSC753686), talazoparib (NSC767125), ART-558 (NSC835418), sotorasib (NSC818433), MRTX-1133 (NSC836407), SN-38 (NSC673596), topotecan (NSC609699), etoposide (NSC141540), doxorubicin (NSC123127), gemcitabine (NSC613327), 5-fluorouracil (NSC19893), paclitaxel (NSC125973), vemurafenib (NSC761431), panobinostat (NSC761190), R-306465 (JNJ-16241199; NSC773264), adavosertib (NSC754352), TP-3654 (NSC805149), carboplatin (NSC241240), KSQ-4279 (NSC840948), and staurosporine (NSC755774) were obtained from the National Cancer Institute (NCI) Developmental Therapeutics Program Chemical Repository (34). The FDA-approved anticancer drug set is available from the NCI Developmental Therapeutics Program. […] The stock solutions were prepared in dimethyl sulfoxide (DMSO, Sigma-Aldrich, St. Louis, MO, cat. D2650) at 800-fold the tested concentration and stored at -70 degrees C prior to their use. All drugs and investigational agents were tested over a range starting from a high concentration at or near the clinical Cmax and decreasing in half-log increments. If the clinical Cmax for an agent had not been determined, the highest concentration tested was 10 microM.
2.3 Cell Culture. All cells were maintained in an incubator at 37 degrees C and 5% CO2 with 95% humidity. The PDC lines were cultured according to standard operating procedures established by the NCI PDMR. All PDCs were thawed and cultured in Matrigel-coated flasks prepared with a working solution of 1X Ham's F-12 nutrient mix, without supplementation (Invitrogen, cat. 11765054), 100 U/mL penicillin-streptomycin (Invitrogen, cat. 15140122), and 2.5% Matrigel (Corning Inc., cat. 354248) for the first three passages. The 857933-349-R-J2-PDC line was cultured in 6C/Colon 1B media, which includes advanced DMEM/F-12 (Thermo Fisher Scientific, cat. 12634028), 10 mM HEPES (Thermo Fisher Scientific, cat. 15630080), 1X GlutaMAX supplement (Thermo Fisher Scientific, cat. 35050061), 0.1 mg/mL primocin (InvivoGen, cat. ant-pm-2), 10% defined fetal bovine serum, heat inactivated (HyClone Laboratories Inc., cat. SH30070.03HI), 50% L-WRN conditioned media (ATCC, cat. CRL-3276), 1.25 mM N-Acetyl-L-cysteine (Sigma-Aldrich, cat. A9165), 10 mM nicotinamide (Sigma-Aldrich, cat. N0636), 1X B-27 supplement (Thermo Fisher Scientific, cat. 17504044), 1X N-2 supplement (Thermo Fisher Scientific, cat. 17502048), 10 microM Y-27632 dihydrochloride (Tocris Bioscience, cat. 1254), and 50 ng/mL human EGF recombinant protein (Thermo Fisher Scientific, cat. PHG0311). The 485176-168-R4-J1-PDC line was cultured in Panc media, which includes all 6C/Colon 1B media components plus 100 ng/mL human FGF-10 (Thermo Fisher Scientific, cat. 100-26), 500 nM SB-431542 (Selleckchem, cat. S1067), and gastrin (Tocris, cat. 3006).
[…]
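Note: spheroids exposed to compounds for seven days.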

SMILES: C=CC(=O)N1CCN(c2nc(=O)n(-c3c(C)ccnc3C(C)C)c3nc(-c4c(O)cccc4F)c(F)cc23)C(C)C1 (stereo not drawn) + Cc1[nH]c2ccc(F)cc2c1-c1nc2c3cccnc3c3ncccc3c2[nH]1
- pIC50 (curve of first compound, second compound 0.0316 µM): < 5.00
- pIC50 (curve of first compound, second compound 0.1 µM): < 5.00
- pIC50 (curve of first compound, second compound 0.316 µM): < 5.00
- pIC50 (curve of first compound, second compound 1 µM): < 5.00
- pIC50 (curve of first compound, second compound 3.16 µM): < 5.00
- pIC50 (curve of first compound, second compound 10 µM): < 5.00
- viability, T/C (second compound 0.0316 µM, first compound 0.0316 µM): 111%
- viability, T/C (second compound 0.0316 µM, first compound 0.1 µM): 78.9%
- viability, T/C (second compound 0.0316 µM, first compound 0.316 µM): 104%
- viability, T/C (second compound 0.0316 µM, first compound 1 µM): 101%
- viability, T/C (second compound 0.0316 µM, first compound 3.16 µM): 111%
- viability, T/C (second compound 0.0316 µM, first compound 10 µM): 88.3%
- viability, T/C (second compound 0.1 µM, first compound 0.0316 µM): 96%
- viability, T/C (second compound 0.1 µM, first compound 0.1 µM): 96.8%
- viability, T/C (second compound 0.1 µM, first compound 0.316 µM): 95%
- viability, T/C (second compound 0.1 µM, first compound 1 µM): 117%
- viability, T/C (second compound 0.1 µM, first compound 3.16 µM): 106%
- viability, T/C (second compound 0.1 µM, first compound 10 µM): 77.4%
- viability, T/C (second compound 0.316 µM, first compound 0.0316 µM): 110%
- viability, T/C (second compound 0.316 µM, first compound 0.1 µM): 92.8%
- viability, T/C (second compound 0.316 µM, first compound 0.316 µM): 95.2%
- viability, T/C (second compound 0.316 µM, first compound 1 µM): 119%
- viability, T/C (second compound 0.316 µM, first compound 3.16 µM): 101%
- viability, T/C (second compound 0.316 µM, first compound 10 µM): 83.3%
- viability, T/C (second compound 1 µM, first compound 0.0316 µM): 92.8%
- viability, T/C (second compound 1 µM, first compound 0.1 µM): 105%
- viability, T/C (second compound 1 µM, first compound 0.316 µM): 99.5%
- viability, T/C (second compound 1 µM, first compound 1 µM): 103%
- viability, T/C (second compound 1 µM, first compound 3.16 µM): 96.2%
- viability, T/C (second compound 1 µM, first compound 10 µM): 70.1%
- viability, T/C (second compound 3.16 µM, first compound 0.0316 µM): 71.7%
- viability, T/C (second compound 3.16 µM, first compound 0.1 µM): 74.8%
- viability, T/C (second compound 3.16 µM, first compound 0.316 µM): 71.2%
- viability, T/C (second compound 3.16 µM, first compound 1 µM): 84.4%
- viability, T/C (second compound 3.16 µM, first compound 3.16 µM): 79.2%
- viability, T/C (second compound 3.16 µM, first compound 10 µM): 67.1%
- viability, T/C (second compound 10 µM, first compound 0.0316 µM): 66%
- viability, T/C (second compound 10 µM, first compound 0.1 µM): 63.7%
- viability, T/C (second compound 10 µM, first compound 0.316 µM): 65.7%
- viability, T/C (second compound 10 µM, first compound 1 µM): 72.3%
- viability, T/C (second compound 10 µM, first compound 3.16 µM): 80.5%
- viability, T/C (second compound 10 µM, first compound 10 µM): 60.8%

- pIC50 (curve of compound): < 6.50
SMILES: CC[C@@]1(O)C(=O)OCc2c1cc1n(c2=O)Cc2cc3c(CN(C)C)c(O)ccc3nc2-1
- viability, T/C (compound 0.000999 µM): 103% and 111% and 108%
- viability, T/C (compound 0.00316 µM): 83.2% and 92.2% and 77.5%
- viability, T/C (compound 0.00999 µM): 97.7% and 100% and 114%
- viability, T/C (compound 0.0316 µM): 82.8% and 82.3% and 80.1%
- viability, T/C (compound 0.0999 µM): 66.6% and 50.2% and 63.6%
- viability, T/C (compound 0.316 µM): 53% and 58.5% and 51.3%

- pIC50 (curve of compound): < 5.00
SMILES: C=CC(=O)N1CCN(c2nc(=O)n(-c3c(C)ccnc3C(C)C)c3nc(-c4c(O)cccc4F)c(F)cc23)C(C)C1 (stereo not drawn)
- viability, T/C (compound 0.0316 µM): 110% and 115% and 96.6%
- viability, T/C (compound 0.1 µM): 95.3% and 80% and 113%
- viability, T/C (compound 0.316 µM): 105% and 99.4% and 119%
- viability, T/C (compound 1 µM): 91.2% and 103% and 99.1%
- viability, T/C (compound 3.16 µM): 104% and 116% and 106%
- viability, T/C (compound 10 µM): 93% and 80.7% and 94.2%

- pIC50 (curve of compound): < 5.00
SMILES: Cc1cccc(N(C)C(=O)C2C(O)CCN2c2nc(C)cc(C(F)(F)F)c2C#N)c1 (stereo not drawn)
- viability, T/C (compound 0.0316 µM): 111% and 106% and 99%
- viability, T/C (compound 0.1 µM): 106% and 98% and 82%
- viability, T/C (compound 0.316 µM): 122% and 102% and 99.9%
- viability, T/C (compound 1 µM): 91.4% and 86.8% and 108%
- viability, T/C (compound 3.16 µM): 115% and 88% and 114%
- viability, T/C (compound 10 µM): 115% and 106% and 127%
